# In PMC7688903 (Frontiers in Microbiology, 2020):
# Where a SMILES comes first, the peptide text is derived from it. [ ]: non-standard residue; d: D form. 2Thi = N[C@@H](Cc1cccs1)C(=O)O; Aib = CC(C)(N)C(=O)O
# Experiment: Circular dichroism spectroscopy, secondary structure
# Format: physicochemical
# Conditions: 0.1 mg/mL, 25°C; for [θ]222: average of three scans; for %α-helix: from [θ]222
# Method: The secondary structures of Pep05 and its derivatives were investigated using a Chirascan qCD Spectrometer (Applied Photophysics, United Kingdom). The peptides were dissolved to a final concentration of 0.1 mg/mL in four different solvents, namely, 10 mM phosphate buffer (PB; pH 7.4), 50% TFE/PB, 25 mM SDS in PB, and 0.1% LPS in PB ([Kim et al., 2017]). Circular dichroism (CD) spectra were recorded from 260 to 190 nm at 25°C as the average of three scans. Data were collected using a path length of 0.1 cm, scan speed of 50 nm/min, bandwidth of 1.0 nm, response time of 1 s, and resolution of 0.1 nm ([Khara et al., 2016]). Following background subtraction, the observed ellipticity [θ]obs (mdeg) was converted to molar ellipticity [θ] (deg⋅cm^2⋅dmol^–1) using the equation [θ] = [θ]obs(MRW/10cl), where [θ]obs is the observed ellipticity corrected for the blank at a given wavelength (mdeg), MRW is the mean residue molecular weight (molecular weight/number of amino acids), c is the peptide concentration (mg/mL), and l is the path length (cm). Assuming a two-state model, the percentage of α-helix structure was calculated using the following equation: α-helical content = −([θ]222 + 2000)/30000 × 100% ([Jia et al., 2017]).
# The influence of the amino acid substitutions on the peptide secondary structure was investigated using CD spectroscopy under different conditions, including 10 mM PB at pH 7.4 (mimicking an aqueous environment), 50% TFE (mimicking a hydrophobic bacterial membrane environment), 25 mM SDS (mimicking a negatively charged bacterial membrane environment), and 0.1% LPS (mimicking a bacterial outer membrane environment).
smiles,measurement,setting,value
CC(C)C[C@H](NC(=O)[C@H](Cc1ccc(O)cc1)NC(=O)[C@H](CCCCN)NC(=O)[C@H](CC(C)C)NC(=O)[C@H](CC(C)C)NC(=O)[C@H](CCCCN)NC(=O)[C@H](CCCCN)NC(=O)[C@H](Cc1ccccc1)NC(=O)[C@H](CC(C)C)NC(=O)[C@H](CCCNC(=N)N)NC(=O)C(C)(C)N)C(=O)N[C@@H](CCCNC(=N)N)C(=O)N[C@@H](CCCCN)C(=O)N[C@@H](Cc1cccs1)C(N)=O [UP09] (H-[Aib]RLFKKLLKYLRK[2Thi]-NH2; N-terminus assumed),[θ]222,10 mM PB buffer pH 7.4,–1842.7 deg⋅cm^2⋅dmol^–1
same,%α-helix,"10 mM PB buffer pH 7.4, rc = random coil",rc
same,[θ]222,25 mM SDS in PB,–4643.3 deg⋅cm^2⋅dmol^–1
same,%α-helix,"25 mM SDS in PB, rc = random coil",8.8%
same,[θ]222,0.1% LPS in PB,–11064.1 deg⋅cm^2⋅dmol^–1
same,%α-helix,0.1% LPS in PB,30.2%
same,[θ]222,50% TFE/PB,–11436.9 deg⋅cm^2⋅dmol^–1
same,%α-helix,"50% TFE/PB, rc = random coil",31.5%
